Experiment [1] concerns the target T1, MBP-EALpdeB (EAL domain of PdeB) (Lactobacillus acidophilus, UniProt Q5FJ84).
T1 construct: gene LBA1415; EAL domain (residues 32-267, ELLLR motif, no N-terminal membrane targeting signal), MBP fusion in pMAL-c2, expressed in E. coli BL21, amylose column; MBP kept
T1 sequence (Q5FJ84 32-267): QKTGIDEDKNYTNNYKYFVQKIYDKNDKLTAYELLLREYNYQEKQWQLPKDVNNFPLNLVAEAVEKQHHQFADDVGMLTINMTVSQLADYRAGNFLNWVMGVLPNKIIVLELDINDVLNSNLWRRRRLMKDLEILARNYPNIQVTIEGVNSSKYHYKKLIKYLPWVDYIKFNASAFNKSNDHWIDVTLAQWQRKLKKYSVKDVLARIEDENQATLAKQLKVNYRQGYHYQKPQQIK
The experiment is described as follows: equilibrium dialysis with HPLC quantification. It is filed as binding. Background: In equilibrium dialysis free small molecules cross a membrane that holds back macromolecules.

Experiment [2] deals with T2, MBP-PdeA (Lactobacillus acidophilus, UniProt Q5FJ85).
T2 construct: gene LBA1414; pdeA (EAL domain only protein), MBP fusion in pMAL-c2, expressed in E. coli BL21, amylose column; MBP kept
T2 sequence (Q5FJ85 1-231): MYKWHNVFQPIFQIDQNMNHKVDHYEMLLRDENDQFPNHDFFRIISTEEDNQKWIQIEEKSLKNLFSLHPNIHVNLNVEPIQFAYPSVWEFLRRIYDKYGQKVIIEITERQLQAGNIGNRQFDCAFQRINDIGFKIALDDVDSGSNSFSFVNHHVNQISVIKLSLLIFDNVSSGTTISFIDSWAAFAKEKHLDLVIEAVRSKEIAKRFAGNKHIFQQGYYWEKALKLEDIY
The experiment is described as follows: PDE assay, reversed-phase HPLC. It is filed as biochemical. Particulars: 10 μM enzyme, 100 μM c-di-GMP, 5 mM MgCl2, 50 mM Tris-HCl pH 9.35, 37 °C.

Consider two compounds from article PMC6123363, “Functional Characterization of c-di-GMP Signaling-Related Genes in the Probiotic Lactobacillus acidophilus” (Frontiers in Microbiology, 2018).

On to `Nc1nc2c(ncn2[C@@H]2O[C@@H]3COP(=O)(O)O[C@H]4[C@@H](O)[C@H](n5cnc6c(=O)[nH]c(N)nc65)O[C@@H]4COP(=O)(O)O[C@H]3[C@H]2O)c(=O)[nH]1` [c-di-GMP], for which binding in experiment [1] was put at a Kd of 4.87 ± 0.89 µM. Further, in experiment [2], the “PDE assay, reversed-phase HPLC” value is recorded as “PdeA was able to hydrolyze c-di-GMP to pGpG”.
In the case of `Nc1nc2c(ncn2[C@@H]2O[C@H](COP(=O)(O)O[C@H]3[C@@H](O)[C@H](n4cnc5c(=O)[nH]c(N)nc54)O[C@@H]3COP(=O)(O)O)[C@@H](O)[C@H]2O)c(=O)[nH]1` [pGpG], in experiment [2], the “PDE assay, reversed-phase HPLC” value is listed as “The PdeA enzymatic reaction product corresponded to the retention time of the pGpG”.

What is called Kd is the concentration at which binding is half-saturated. High values mean weaker binding, low ones tighter binding.
